Results reported in paper PMC7125355 (Translational Oncology, 2020).
Where two headings read alike, the source gives them in different places. Blank lines part the entries; values can stand above or below the molecule they belong to.

Legend:
[1] = test system: HL60^Flt3-WT; test: cells; design: species or system human leukemia lines named per line
[2] = test system: KG1^FGFR1OP2-FGFR1; test: cells; design: species or system human leukemia lines named per line
[3] = test system: EOL-1^PDGFRα; test: cells; design: species or system human leukemia lines named per line
[4] = test system: U937^Flt3-WT; test: cells; design: species or system human leukemia lines named per line
[5] = test system: MOLT4^Flt3-WT; test: cells; design: species or system human leukemia lines named per line
[6] = test system: BaF3-FLT3-ITD-Y842H; test: cells; design: species or system Ba/F3 stable lines
[7] = test system: BaF3-tel-FLT3-R834Q; test: cells; design: species or system Ba/F3 stable lines
[8] = test system: BaF3-tel-FLT3-D835Y; test: cells; design: species or system Ba/F3 stable lines
[9] = test system: BaF3-FLT3-D835V; test: cells; design: species or system Ba/F3 stable lines
[10] = test system: BaF3-FLT3-ITD-N676D; test: cells; design: species or system Ba/F3 stable lines
[11] = test system: BaF3-FLT3-D835H; test: cells; design: species or system Ba/F3 stable lines
[12] = test system: BaF3-FLT3-MOLM-ITD; test: cells; design: species or system Ba/F3 stable lines
[13] = test system: BaF3-FLT3-ITD-D835Y; test: cells; design: species or system Ba/F3 stable lines
[14] = test system: BaF3-tel-FLT3-K663Q; test: cells; design: species or system Ba/F3 stable lines
[15] = test system: MOLM-13^Flt3-ITD; test: cells; design: species or system human leukemia lines named per line
[16] = test system: THP1^Flt3-WT; test: cells; design: species or system human leukemia lines named per line
[17] = test system: MV411^Flt3-ITD; test: cells; design: species or system human leukemia lines named per line
[18] = biological target: PDGFRα (Homo sapiens, UniProt P16234); test: FRET-based Z'-Lyte kinase assay, parallel comparison; assay type: biochemical
[19] = test system: NB4^Flt3-WT; test: cells; design: species or system human leukemia lines named per line; conditions: read-out: Quizaritinib (AC220); 72 h proliferation, mean ± SD; inhibitor
[20] = test system: MEG01^Flt-WT; test: cells; design: species or system human leukemia lines named per line; conditions: read-out: Quizaritinib (AC220); 72 h proliferation, mean ± SD; inhibitor
[21] = test system: BaF3-FLT3-ITD-F691I; test: cells; design: species or system Ba/F3 stable lines; conditions: read-out: Quizartinib / (AC220); 72 h proliferation; inhibitor
[22] = test system: BaF3-FLT3-ITD-G697R; test: cells; design: species or system Ba/F3 stable lines; conditions: read-out: Quizartinib / (AC220); 72 h proliferation; inhibitor
[23] = test system: BaF3-Tel-FLT3-ITD; test: cells; design: species or system Ba/F3 stable lines; conditions: read-out: Quizartinib / (AC220); 72 h proliferation; inhibitor
[24] = test system: BaF3-FLT3-ITD-D835G; test: cells; design: species or system Ba/F3 stable lines; conditions: read-out: Quizartinib / (AC220); 72 h proliferation; inhibitor
[25] = test system: BaF3-tel-FLT3; test: cells; design: species or system Ba/F3 stable lines; conditions: read-out: Quizartinib / (AC220); 72 h proliferation; inhibitor
[26] = test system: BaF3-FLT3-ITD-D835V; test: cells; design: species or system Ba/F3 stable lines; conditions: read-out: Quizartinib / (AC220); 72 h proliferation; inhibitor
[27] = test system: BaF3-FLT3-ITD-Y842R; test: cells; design: species or system Ba/F3 stable lines; conditions: read-out: Quizartinib / (AC220); 72 h proliferation; inhibitor
[28] = test system: BaF3-FLT3-ITD-D835I; test: cells; design: species or system Ba/F3 stable lines; conditions: read-out: Quizartinib / (AC220); 72 h proliferation; inhibitor
[29] = test system: BaF3-FLT3-ITD-D835N; test: cells; design: species or system Ba/F3 stable lines; conditions: read-out: Quizartinib / (AC220); 72 h proliferation; inhibitor
[30] = 72 h, read-out: GZD824 (HQP1351)
[31] = Mus musculus, BaF3, 72 h, read-out: GZD824
[32] = Mus musculus, BaF3, 72 h, read-out: Midostaurin / (PKC412)
[33] = 72 h, read-out: Gilteritinib (ASP2215)
[34] = read-out: Quizaritinib (AC220), 72 h proliferation, mean ± SD, inhibitor
[35] = read-out: Quizartinib / (AC220), 72 h proliferation, inhibitor

PDGFRα, sequence (P16234 24-1089): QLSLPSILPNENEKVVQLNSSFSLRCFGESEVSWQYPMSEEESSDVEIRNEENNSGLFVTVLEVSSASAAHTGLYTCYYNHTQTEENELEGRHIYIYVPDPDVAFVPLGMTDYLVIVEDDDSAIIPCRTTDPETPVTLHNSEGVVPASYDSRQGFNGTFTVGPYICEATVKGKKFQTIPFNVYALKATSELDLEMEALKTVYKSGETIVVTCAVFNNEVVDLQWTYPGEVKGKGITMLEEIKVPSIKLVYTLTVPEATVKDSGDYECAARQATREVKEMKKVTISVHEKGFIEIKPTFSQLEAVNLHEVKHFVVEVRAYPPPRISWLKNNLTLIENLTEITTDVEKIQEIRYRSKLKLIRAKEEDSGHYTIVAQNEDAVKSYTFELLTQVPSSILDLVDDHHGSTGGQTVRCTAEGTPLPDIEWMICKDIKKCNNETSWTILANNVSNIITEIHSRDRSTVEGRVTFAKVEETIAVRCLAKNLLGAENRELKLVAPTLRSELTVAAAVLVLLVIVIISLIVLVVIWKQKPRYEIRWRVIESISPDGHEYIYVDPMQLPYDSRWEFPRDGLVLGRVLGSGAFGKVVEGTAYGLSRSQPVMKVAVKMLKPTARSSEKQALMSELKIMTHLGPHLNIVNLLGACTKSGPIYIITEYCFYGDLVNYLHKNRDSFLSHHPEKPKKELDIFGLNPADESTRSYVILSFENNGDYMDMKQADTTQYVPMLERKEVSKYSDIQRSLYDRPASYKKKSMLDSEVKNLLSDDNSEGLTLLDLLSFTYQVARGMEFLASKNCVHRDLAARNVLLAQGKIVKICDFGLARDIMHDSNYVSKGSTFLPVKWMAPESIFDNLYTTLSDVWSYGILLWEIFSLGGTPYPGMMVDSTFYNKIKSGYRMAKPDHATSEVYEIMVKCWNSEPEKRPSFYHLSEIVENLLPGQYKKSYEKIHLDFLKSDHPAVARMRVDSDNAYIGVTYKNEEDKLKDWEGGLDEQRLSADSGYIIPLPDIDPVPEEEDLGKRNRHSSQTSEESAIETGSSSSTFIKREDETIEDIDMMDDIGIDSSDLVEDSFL

Structure (SMILES): Cc1ccc(C(=O)Nc2ccc(CN3CCN(C)CC3)c(C(F)(F)F)c2)cc1C#Cc1cnc2[nH]ncc2c1 [GZD824]
IC50 [1, 30]: 0.922 ± 0.21 µM | IC50 [2, 30]: 0.00366 ± 0.00193 µM | IC50 [3, 30]: 0.00756 ± 0.00273 µM | IC50 [4, 30]: 1.17 ± 0.105 µM | IC50 [5, 30]: 0.246 ± 0.139 µM | IC50 [6, 31]: 0.0032 µM | IC50 [7, 31]: 0.0762 µM | IC50 [8, 31]: 0.0057 µM | IC50 [9, 31]: 0.0347 µM | IC50 [10, 31]: 0.0072 µM | IC50 [11, 31]: 0.0176 µM | IC50 [12, 31]: 0.0008 µM | IC50 [13, 31]: 0.0357 µM | IC50 [14, 31]: 0.853 µM

Structure (SMILES): CO[C@@H]1[C@H](N(C)C(=O)c2ccccc2)C[C@H]2O[C@]1(C)n1c3ccccc3c3c4c(c5c6ccccc6n2c5c31)C(=O)NC4 [Midostaurin]
IC50 [7, 32]: 0.0631 µM | IC50 [10, 32]: 0.0624 µM

IC50 [1, 33]: 0.689 ± 0.398 µM | IC50 [15, 33]: 0.00935 ± 0.00223 µM | IC50 [16, 33]: > 1 µM | IC50 [17, 33]: 0.00334 ± 0.00091 µM | IC50 [18]: 0.148 ± 0.00778 µM
Structure (SMILES): CCc1nc(C(N)=O)c(Nc2ccc(N3CCC(N4CCN(C)CC4)CC3)c(OC)c2)nc1NC1CCOCC1 [gilteritinib]

Structure (SMILES): CC(C)(C)c1cc(NC(=O)Nc2ccc(-c3cn4c(n3)sc3cc(OCCN5CCOCC5)ccc34)cc2)no1 [quizartinib]
IC50 [1, 34]: 1.17 ± 0.0721 µM | IC50 [19]: 1.99 ± 0.89 µM | IC50 [2, 34]: 1.02 ± 0.572 µM | IC50 [15, 34]: 0.00567 ± 0.00929 µM | IC50 [16, 34]: > 1 µM | IC50 [3, 34]: 1.51 ± 0.451 µM | IC50 [17, 34]: 0.00107 ± 0.00032 µM | IC50 [20]: 3.31 ± 1.56 µM | IC50 [4, 34]: 1.43 ± 0.246 µM | IC50 [5, 34]: 1.95 ± 1.75 µM | IC50 [6, 35]: 0.0053 µM | IC50 [7, 35]: > 1 µM | IC50 [8, 35]: 0.0024 µM | IC50 [21]: 0.095 µM | IC50 [22]: 0.0228 µM | IC50 [9, 35]: 0.0402 µM | IC50 [10, 35]: 0.0083 µM | IC50 [11, 35]: 0.004 µM | IC50 [23]: 0.002 µM | IC50 [24]: 0.0043 µM | IC50 [12, 35]: 0.0008 µM | IC50 [25]: 0.0031 µM | IC50 [26]: 0.126 µM | IC50 [13, 35]: 0.0355 µM | IC50 [14, 35]: > 1 µM | IC50 [27]: 0.0072 µM | IC50 [28]: 0.183 µM | IC50 [29]: 0.0016 µM
